As usually defined, the EC50 is the midpoint of the concentration-response curve. A higher EC50 goes with a need for much substance. Usually Emax stands for the maximal effect, on the per cent scale that the assay sets.

For the assay, the target named is human cannabinoid CB2 receptor (Homo sapiens, UniProt P34972). The assay can be described thus: Cannabinoid CB2 receptor agonist activity (yeast reporter assay, FDGlu fluorescence). The following applies: for EC50: EC50 value at the cloned human cannabinoid CB2 receptor; for Emax: read-out: efficacy value (Emax relative to HU210) at the cloned human cannabinoid CB2 receptor. Format: cell-based. In short, it runs like this: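 S. cerevisiae MMY23 expressing human CB2 with a Gpa1/Gαi3 chimeric G-protein, grown 24 h at 30 °C with agonist (1% DMSO) in selective media containing 10 mM 3-aminotriazole and FDGlu, pH 7.0. Fluorescein fluorescence (485/535 nm) fitted by four-parameter curve; Emax and EMR relative to HU210.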
(Reporter assays use an easily measured gene product as a stand-in for the process of interest.)

human cannabinoid CB2 receptor, sequence (P34972 whole entry): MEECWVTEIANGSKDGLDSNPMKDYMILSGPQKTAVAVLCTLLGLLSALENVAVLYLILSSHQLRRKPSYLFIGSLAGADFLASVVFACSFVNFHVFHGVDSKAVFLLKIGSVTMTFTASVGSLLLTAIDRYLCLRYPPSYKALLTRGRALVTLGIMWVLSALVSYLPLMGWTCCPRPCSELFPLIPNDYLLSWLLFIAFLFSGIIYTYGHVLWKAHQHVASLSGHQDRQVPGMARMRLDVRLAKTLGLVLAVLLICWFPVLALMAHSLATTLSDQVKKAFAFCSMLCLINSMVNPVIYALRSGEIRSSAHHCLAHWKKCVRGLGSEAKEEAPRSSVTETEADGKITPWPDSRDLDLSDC

With `O=C(c1cnc(Nc2ccccc2)nc1C(F)(F)F)N1CCOCC1` [Example 25, 1-Morpholin-4-yl-1-(2-phenylamino-4-trifluoromethyl-pyrimidin-5-yl)-methanone], the EC50 lay in the range of 0.3 to 1 µM and the Emax was more than 50%.

`O=C(NCC1CCOCC1)c1cnc(Nc2cc(Cl)cc(Cl)c2)nc1C(F)(F)F` [Example 36, 2-(3,5-Dichlorophenylamino)-4-trifluoromethylpyrimidine-5-carboxylic acid (tetrahydropyran-4-ylmethyl)-amide]: the EC50 was 0.02 to 0.3 µM and the Emax is more than 50%.

With `Cc1ccc(Nc2ncc(C(=O)NCC3CCCCC3)c(C(F)(F)F)n2)c(Cl)c1` [Example 244, 2-(2-Chloro-4-methylphenylamino)-4-trifluoromethyl-pyrimidine-5-carboxylic acid cyclohexylmethyl-amide], the EC50 lay in the range of 0.02 to 0.3 µM and the Emax is more than 50%.

As for `Cc1cc(Cl)ccc1Nc1ncc(C(=O)NCC2CCC2)c(C(F)(F)F)n1` [Example 253, 2-(2-Methyl-4-chloro-phenylamino)-4-trifluoromethyl-pyrimidine-5-carboxylic acid cyclobutylmethyl-amide], the EC50 lay in the range of 0.02 to 0.3 µM and the Emax is more than 50%.

In the case of `CC(C)c1cc(Nc2ccc(Br)c(C(F)(F)F)c2)ncc1C(=O)NCC1CCOCC1` [Example 752, 6-(4-Bromo-3-trifluoromethyl-phenylamino)-4-isopropyl-N-(tetrahydropyran-4-ylmethyl)-nicotinamide], the EC50 lay within 0.3 to 1 µM and the Emax was more than 50%.

Turning to `O=C(NCC1CCSCC1)c1cnc(Nc2cccc(Cl)c2)nc1C(F)(F)F` [Example 255, 2-(3-Chlorophenylamino)-4-trifluoromethyl-pyrimidine-5-carboxylic acid (tetrahydrothiopyran-4-ylmethyl) amide], the EC50 is 0.02 to 0.3 µM and the Emax is more than 50%.

`O=C(NCC1CCOCC1)c1cnc(Nc2cccc(Cl)c2)nc1C(F)(F)F` [Example 22, 2-(3-Chlorophenylamino)-4-trifluoromethylpyrimidine-5-carboxylic acid (tetrahydro-pyran-4-ylmethyl)-amide]: the EC50 fell in the range of 0.02 to 0.3 µM and the Emax was more than 50%.

As for `O=C(NCC1CCC1)c1cnc(Nc2cc(F)cc(C(F)(F)F)c2)nc1C(F)(F)F` [Example 258, 2-(3-Fluoro-5-trifluoromethylphenylamino)-4-trifluoromethyl-pyrimidine-5-carboxylic acid cyclobutylmethyl-amide], the EC50 lay in the range of 0.3 to 1 µM and the Emax is more than 50%.

In the case of `CC(C)c1cc(Nc2cc(Cl)ccc2C#N)ncc1C(=O)NCC1CCOCC1` [Example 679, 6-(5-Chloro-2-cyano-phenylamino)-4-isopropyl-N-(tetrahydro-pyran-4-ylmethyl)-nicotinamide], the Emax was less than 30%.

On to `O=C(c1cnc(Nc2cccc(F)c2)nc1C(F)(F)F)N1CCCCC1` [Example 78, 1-[2-(3-fluorophenylamino)-4-trifluoromethyl-pyrimidin-5-yl]-1-piperidin-1-yl-methanone], for which the EC50 is 0.3 to 1 µM and the Emax is more than 50%.

The compound `Cc1cc(CNC(=O)c2cnc(Nc3cccc(Cl)c3)nc2C(F)(F)F)ccn1` [Example 303, 2-(3-Chloro-phenylamino)-4-trifluoromethyl-pyrimidine-5-carboxylic acid (2-methyl-pyridin-4-ylmethyl)-amide] returned an EC50 of 0.3 to 1 µM.

Take `O=C(NCC1CCCCC1)c1cnc(Nc2c(Cl)cccc2Cl)nc1C(F)(F)F` [Example 21, 2-(2,6-Dichlorophenylamino)-4-trifluoromethylpyrimidine-5-carboxylic acid cyclohexylmethyl-amide]: the EC50 was 0.02 to 0.3 µM and the Emax is more than 50%.

Turning to `Cc1cc(Cl)cc(C)c1Nc1ncc(C(=O)NCC2CCCCC2)c(C(F)(F)F)n1` [Example 95, 2-(4-Chloro-2,6-dimethyl-phenylamino)-4-trifluoromethyl-pyrimidine-5-carboxylic acid cyclohexylmethyl-amide], the EC50 is 0.3 to 1 µM and the Emax is more than 50%.

Values taken from patent US20080132505A1 (Glaxo Group Limited, priority 2004, published 2008).
